As usually defined, the pEC50 is the negative decadic logarithm of the EC50, by convention in mol/L. Low values mean a high EC50, high ones a low EC50.

We go through one compound from US10875861B1, “Therapeutic compounds” (Rutgers, The State University of New Jersey, priority 2017, dated 2020).

The structures appear in SMILES notation. pEC50: −log10 of the molar value.

Test [1] concerns glioblastoma cancer cell line. Description: MTT viability assay with glioblastoma cancer cell line (Test A). Format: cell-based, human. To be noted: Homo sapiens, 72 hours. The source says:
To generate primary patient-derived GBM models for testing small molecule inhibitors, fresh primary tissues were received from patients undergoing surgical resection of WHO grade IV gliomas at Robert Wood Johnson University Hospital (RWJUH) under an approved IRB protocol. De-identified primary human GBM samples were delivered to the laboratory. Cells were obtained through mechanical dissociation of the tumor tissue using a blade and plated in DMEM/F12 medium (Gibco) in the presence of B-27 Supplement (Gibco, #17504-044), 20 ng/ml of human recombinant EGF (Gibco, #PHG0311L) and human recombinant FGF (Peprotech, #AF-100-18B). The following day, the culture was collected, incubated with Accutase (Gibco, #A11105-01) at 37° C. and passed through a 26G×⅜ needle (BD Precision Glide, #305110) to obtain a single cell suspension and re-plated in the same supplemented medium. Cells were cultured at low (5-6) passages in serum-free sphere 3D culture with mitogens that preserve the clonogenic stemness phenotype. […] different primary GBM cells (GBM #46, GBM #50, and GBM #76) were tested for cell viability after treatment with the inhibitors. Cell viability was measured using MTT assay. Briefly, one thousand cells per well were seeded in 96-well plates and exposed to drug in a total of 200 uL media. After 72 hours, 50 uL of stock concentration of 2.5 mg/mL 3-(4,5-dimethylthiazol-2-yl)-2,5-diphenyltetrazolium bromide (MTT) (Sigma, #M2128) dissolved in PBS was added to wells and incubated at 37° C. for 4 hours; read in a […] plate reader at 570 nm and compared to DMSO and untreated cells. The IC50 (defined as the concentration at which 50% of the cells were viable) was determined from the curve.
Accordingly, compounds of the invention may be useful as therapeutic agents for the treatment of cancer.
To generate primary patient-derived GBM models for testing small molecule inhibitors, fresh primary tissues were received from patients undergoing surgical resection of WHO grade IV gliomas at Robert Wood Johnson University Hospital (RWJUH) under an approved RB protocol. De-identified primary human GBM samples were delivered to the laboratory. Cells were obtained through mechanical dissociation of the tumor tissue using a blade and plated in DMEM/F12 medium (Gibco) in the presence of B-27 Supplement (Gibco, #17504-044), 20 ng/ml of human recombinant EGF (Gibco, #PHG0311L) and human recombinant FGF (Peprotech, #AF-100-18B). […] Cell viability was measured using MTT assay. […] After 72 hours, 50 uL of stock concentration of 2.5 mg/mL 3-(4,5-dimethylthiazol-2-yl)-2,5-diphenyltetrazolium bromide (MTT) (Sigma, #M2128) dissolved in PBS was added to wells and incubated at 37° C. for 4 hours; read in a […] plate reader at 570 nm and compared to DMSO and untreated cells. […]
(In general: Tetrazolium assays rely on reduction of a dye to a coloured formazan, in cell work by metabolically active cells.)

Test [2] has as its system BMI-1 and ubiquitinated histone H2A in primary glioblastoma cells. Briefly: Modulation / dynamics of BMI-1 and downstream targets in GBM cells (Western blotting). Format: cell-based, human. The note with it: GBM cells, B compounds, 72 hours. How it is done:
Different GBM cells were treated with DMSO or different concentrations of the B compounds for 72 hours. Cells were lysed in Cell Lysis Buffer (Cell Signaling, #9803) supplemented with Protease Inhibitor Cocktail (Sigma, #P8340), spun down for 30 minutes at 4° C., after which the supernatant was collected at every time point indicated. Western blotting analysis was performed on all samples as described above. BMI-1 loss started at 6-12 h, coinciding with an upper shift and hyper-phosphorylation of BMI-1 at 12-24 h and complete depletion at 72 h.
To study the compound dynamic activity against GBM spheres, GBMs were tested with exemplary compounds. Different GBM cells were treated with DMSO or different concentrations of the inhibitors for 72 hours. Cells were lysed in Cell Lysis Buffer (Cell Signaling, #9803) supplemented with Protease Inhibitor Cocktail (Sigma, #P8340), spun down for 30 minutes at 4° C., after which the supernatant was collected at every time point indicated. Western blotting analysis was performed on all samples as described above. […] BMI-1 loss started at 6-12 h, coinciding with an upper shift and hyper-phosphorylation of BMI-1 at 12-24 h and complete depletion at 72 h. […] This is expected since BMI-1 is known to suppress p21. BMI-1 inhibition could be reversed using phosphatase treatment, moreover, when proteasomal inhibitor is added to treated cells after 24 h, BMI-1 is locked in the phosphorylated state, therefore showing that the phosphorylation event precedes BMI-1 degradation. The phosphorylation was independent of p38 kinase activation, as when we added […], the p38 inhibitor to the cultured cells upon treatment with the BMI-1 inhibitor, the combined treatment could not reverse the effects of RU-A15 on BMI-1 inhibition.
For orientation: Immunoblotting shows a protein as a band on a membrane.

For the compound `COc1ccc(Nc2nc(-c3nc4ncccn4c3C)cs2)cc1` [Example B1, N-(4-methoxyphenyl)-4-(3-methylimidazo[1,2-a]pyrimidin-2-yl)thiazol-2-amine], the pEC50 in test [1] is 5.30. Also, in test [2], the “modulation of BMI-1 (Test B)” value is on record as “modulation of BMI-1” and the “modulation of ubiquitinated histone H2A (Test B)” value is recorded as “modulation of downstream target ubiquitinated histone H2A”.
